# Legend:
# [1] = system: U-87 MG; test: Antiproliferative activity against human U-87 MG assessed as cell viability incubated for 48 hrs by MTT assay; assay type: functional, cell-based, U-87MG ATCC
# [2] = system: U-87 MG; test: Inhibition of ERK1/2 phosphorylation in human U-87 MG cells at 0.8 uM incubated for 24 hrs by Western blot analysis; assay type: cell-based
compound,measurement,setting,value
CNC(=O)c1ccccc1Nc1nc(Nc2ccc(N3CCN(CCOC(=O)CCCc4ccc(N(CCCl)CCCl)cc4)CC3)cc2)ncc1C(F)(F)F,IC50,[1],15 nM
same,inhibition,[2],100%
